pEC50, pIC50: −log10 of the molar value.
Tests used:
[1] = target: T1, HCV NS3/4A protease complex, BMS strain (UniProt P27958, species not given/STRAIN_BMS); test: FRET peptide assay to monitor HCV NS3/4A proteolytic activity (BMS strain); assay type: biochemical, Hepatitis C virus (genotype 1a); conditions: NS3/4A BMS strain; read-out: IC50 Range
T1 construct: said of H77 and J4L6S; fused on or other part: A three-lysine solubilising tail at the C-terminus of NS4A and a His tag (pET21b, Ni-NTA purification)
T1 sequence (P27958 1027-1657, change not shown, one chain of several): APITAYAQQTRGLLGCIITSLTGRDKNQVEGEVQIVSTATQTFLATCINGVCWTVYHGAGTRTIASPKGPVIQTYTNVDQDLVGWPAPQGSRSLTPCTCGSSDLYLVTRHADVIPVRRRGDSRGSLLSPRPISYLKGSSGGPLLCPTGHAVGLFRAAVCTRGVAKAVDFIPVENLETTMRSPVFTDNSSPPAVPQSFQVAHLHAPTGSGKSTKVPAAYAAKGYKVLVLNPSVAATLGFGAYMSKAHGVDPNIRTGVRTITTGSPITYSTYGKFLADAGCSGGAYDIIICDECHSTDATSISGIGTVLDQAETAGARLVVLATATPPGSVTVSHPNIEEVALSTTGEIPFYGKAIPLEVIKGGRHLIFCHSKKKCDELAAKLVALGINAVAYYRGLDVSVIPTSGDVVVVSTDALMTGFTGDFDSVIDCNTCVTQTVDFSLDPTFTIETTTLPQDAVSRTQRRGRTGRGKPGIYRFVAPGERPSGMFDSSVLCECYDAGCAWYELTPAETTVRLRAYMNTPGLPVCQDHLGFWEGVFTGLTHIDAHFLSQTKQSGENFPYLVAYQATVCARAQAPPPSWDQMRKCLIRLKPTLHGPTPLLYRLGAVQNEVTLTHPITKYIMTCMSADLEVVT
Description: HCV NS3 protease complexes, derived from the BMS strain, H77 strain or J4L6S strain, were generated, as described below. These purified recombinant proteins were generated for use in a homogeneous assay (see below) to provide an indication of how effective compounds of the present disclosure would be in inhibiting HCV NS3 proteolytic activity.
Serum from an HCV-infected patient was obtained from Dr. T. Wright, San Francisco Hospital. An engineered full-length cDNA (compliment deoxyribonucleic acid) template of the HCV genome (BMS strain) was constructed from DNA fragments obtained by reverse transcription-PCR (RT-PCR) of serum RNA (ribonucleic acid) and using primers selected on the basis of homology between other genotype 1a strains. From the determination of the entire genome sequence, a genotype 1a was assigned to the HCV isolate according to the classification of Simmonds et al. (See P Simmonds, K A Rose, S Graham, S W Chan, F McOmish, B C Dow, E A Follett, P L Yap and H Marsden, J. Clin. Microbiol., 31(6), 1493-1503 (1993)). […] The infectious clones, H77 (1a genotype) and J4L6S (1b genotype) were obtained from R. Purcell (NIH) and the sequences are published in Genbank (AAB67036, see Yanagi, M., Purcell, R. H., Emerson, S. U. and Bukh, J. Proc. Natl. Acad. Sci. U.S.A. 94(16), 8738-8743 (1997); AF054247, see Yanagi, M., St Claire, M., Shapiro, M., Emerson, S. U., Purcell, R. H. and Bukh, J, Virology 244 (1), 161-172. (1998)).
The H77 and J4L6S strains were used for production of recombinant NS3/4A protease complexes. DNA encoding the recombinant HCV NS3/4A protease complex (amino acids 1027 to 1711) for these strains were manipulated as described by P. Gallinari et al. (see Gallinari P, Paolini C, Brennan D, Nardi C, Steinkuhler C, De Francesco R. Biochemistry. 38(17):5620-32, (1999)). Briefly, a three-lysine solubilizing tail was added at the 3′-end of the NS4A coding region. The cysteine in the P1 position of the NS4A-NS4B cleavage site (amino acid 1711) was changed to a glycine to avoid the proteolytic cleavage of the lysine tag. Furthermore, a cysteine to serine mutation was introduced by PCR at amino acid position 1454 to prevent the autolytic cleavage in the NS3 helicase domain. The variant DNA fragment was cloned in the pET21b bacterial expression vector (Novagen) and the NS3/4A complex was expressed in Escherichia coli strain BL21 (DE3) (Invitrogen) following the protocol described by P. Gallinari et al. (see Gallinari P, Brennan D, Nardi C, Brunetti M, Tomei L, Steinkuhler C, De Francesco R., J Virol. 72(8):6758-69 (1998)) with modifications. Briefly, the NS3/4A protease complex expression was induced with 0.5 mM Isopropyl β-D-1-thiogalactopyranoside (IPTG) for 22 hours (h) at 20° C. A typical fermentation (1 Liter (L)) yielded approximately 10 grams (g) of wet cell paste. The cells were resuspended in lysis buffer (10 mL/g) consisting of 25 mM N-(2-Hydroxyethyl)Piperazine-N′-(2-Ethane Sulfonic acid) (HEPES), pH 7.5, 20% glycerol, 500 mM Sodium Chloride (NaCl), 0.5% Triton X-100, 1 microgram/milliliter (“μg/mL”) lysozyme, 5 mM Magnesium Chloride (MgCl2), 1 μg/ml Dnasel, 5 mM β-Mercaptoethanol (βME), Protease inhibitor-Ethylenediamine Tetraacetic acid (EDTA) free (Roche), homogenized and incubated for 20 minutes (min) at 4° C. The homogenate was sonicated and clarified by ultra-centrifugation at 235000 g for 1 h at 4° C. Imidazole was added to the supernatant to a final concentration of 15 mM and the pH adjusted to 8.0. The crude protein extract was loaded on a Nickel-Nitrilotriacetic acid (Ni-NTA) column pre-equilibrated with buffer B (25 mM HEPES, pH 8.0, 20% glycerol, 500 mM NaCl, 0.5% Triton X-100, 15 mM imidazole, 5 mM βME). The sample was loaded at a flow rate of 1 mL/min. The column was washed with 15 column volumes of buffer C (same as buffer B except with 0.2% Triton X-100). The protein was eluted with 5 column volumes of buffer D (same as buffer C except with 200 mM Imidazole). […]

[2] = tested on: HCV replicon in HUH-7 cells; test: HCV replicon FRET assay; assay type: cell-based, Hepatitis C virus (strain 1b); conditions: Hepatitis C virus, Huh-7; HCV replicon, for compounds tested; read-out: EC50 Range
Description: An HCV replicon whole cell system was established as described by Lohmann V, Komer F, Koch J, Herian U, Theilmann L, Bartenschlager R., Science 285(5424):110-3 (1999). This system enabled us to evaluate the effects of our HCV Protease compounds on HCV RNA replication. Briefly, using the HCV strain 1b sequence described in the Lohmann paper (Assession number: AJ238799), an HCV cDNA was synthesized by Operon Technologies, Inc. (Alameda, Calif.), and the full-length replicon was then assembled in plasmid pGem9zf(+) (Promega, Madison, Wis.) using standard molecular biology techniques. The replicon consists of (i) the HCV 5′ UTR fused to the first 12 amino acids of the capsid protein, (ii) the neomycin phosphotransferase gene (neo), (iii) the IRES from encephalomyocarditis virus (EMCV), and (iv) HCV NS3 to NS5B genes and the HCV 3′ UTR. Plasmid DNAs were linearized with Scal and RNA transcripts were synthesized in vitro using the T7 MegaScript transcription kit (Ambion, Austin, Tex.) according to manufacturer's directions. In vitro transcripts of the cDNA were transfected into the human hepatoma cell line, HUH-7. […] Resulting cell lines were characterized for positive and negative strand RNA production and protein production over time.
The HCV replicon FRET assay was developed to monitor the inhibitory effects of compounds described in the disclosure on HCV viral replication. HUH-7 cells, constitutively expressing the HCV replicon, were grown in Dulbecco's Modified Eagle Media (DMEM) (Gibco-BRL) containing 10% Fetal calf serum (FCS) (Sigma) and 1 mg/ml G418 (Gibco-BRL). Cells were seeded the night before (1.5×10^4 cells/well) in 96-well tissue-culture sterile plates. Compound and no compound controls were prepared in DMEM containing 4% FCS, 1:100 Penicillin/Streptomysin (Gibco-BRL), 1:100 L-glutamine and 5% DMSO in the dilution plate (0.5% DMSO final concentration in the assay). Compound/DMSO mixes were added to the cells and incubated for 4 days at 37° C. After 4 days, cells were first assessed for cytotoxicity using alamar Blue (Trek Diagnotstic Systems) for a CC50 reading. The toxicity of compound (CC50) was determined by adding 1/10th volume of alamar Blue to the media incubating the cells. After 4 hours, the fluorescence signal from each well was read, with an excitation wavelength at 530 nm and an emission wavelength of 580 nm, using the Cytofluor Series 4000 (Perspective Biosystems). Plates were then rinsed thoroughly with Phosphate-Buffered Saline (PBS) (3 times 150 μl). The cells were lysed with 25 μl of a lysis assay reagent containing an HCV protease substrate (5× cell Luciferase cell culture lysis reagent (Promega #E153A) diluted to 1× with distilled water, NaCl added to 150 mM final, the FRET peptide substrate (as described for the enzyme assay above) diluted to 10 μM final from a 2 mM stock in 100% DMSO. […]. The plate was then placed into the Cytofluor 4000 instrument which had been set to 340 nm excitation/490 nm emission, automatic mode for 21 cycles and the plate read in a kinetic mode. EC50 determinations were carried out as described for the IC50 determinations.

**Q.** Which results are given for CC(C)(C)OC(=O)N[C@H]1CCCCC/C=C\[C@@H]2C[C@@]2(C(=O)NS(=O)(=O)C2CC2)NC(=O)[C@@H]2C[C@@H](OC(=O)c3cc4ccccc4o3)CN2C1=O?
**A.** pIC50 [1]: > 7.00; pEC50 [2]: > 7.00

**Q.** With CN(C)S(=O)(=O)NC(=O)[C@@]12C[C@H]1/C=C\CCCCC[C@H](NC(=O)OC(C)(C)C)C(=O)N1C[C@H](OC(=O)c3ccc4c(c3)OCCO4)C[C@H]1C(=O)N2 as the compound, how does the pIC50 [1] read?
**A.** > 7.00

**Q.** What about the pEC50 [2] of the same compound?
**A.** > 7.00

**Q.** Which results are given for CC(C)(C)OC(=O)N[C@H]1CCCCC/C=C\[C@@H]2C[C@@]2(C(=O)NS(=O)(=O)C2CC2)NC(=O)[C@@H]2C[C@@H](OC(=O)c3cccc(F)c3)CN2C1=O?
**A.** pIC50 [1]: > 7.00; pEC50 [2]: > 7.00

**Q.** With Cc1onc(-c2ccccc2)c1C(=O)O[C@@H]1C[C@H]2C(=O)N[C@]3(C(=O)NS(=O)(=O)C4CC4)C[C@H]3/C=C\CCCCC[C@H](NC(=O)OC(C)(C)C)C(=O)N2C1 as the compound, how does the pIC50 [1] read?
**A.** > 7.00

**Q.** And the pEC50 [2]?
**A.** > 7.00

**Q.** With CCC(C(=O)O[C@@H]1C[C@H]2C(=O)N[C@]3(C(=O)NS(=O)(=O)C4CC4)C[C@H]3/C=C\COCCC[C@H](NC(=O)OC(C)(C)C)C(=O)N2C1)c1ccccc1 (mixture of isomers) [Compound 5, 18-(2-phenylbutyryloxy)-14-tert-butoxycarbonylamino-4-cyclopropylsulfonylaminocarbonyl-2,15-dioxo-3,16-diaza-10-oxatricyclo-[14.3.0.0^4,6]-nonadec-7-ene] as the compound, how does the pIC50 [1] read?
**A.** > 7.00

**Q.** What about the pEC50 [2] of the same compound?
**A.** < 6.00

**Q.** And the melting point?
**A.** 113 to 115 °C

**Q.** With CC(C)(C)OC(=O)N[C@H]1CCCOC/C=C\[C@@H]2C[C@@]2(C(=O)NS(=O)(=O)C2CC2)NC(=O)[C@@H]2C[C@@H](OC(=O)c3ccccc3)CN2C1=O [Compound 1, 18-benzoyloxy-14-tert-butoxycarbonylamino-4-cyclopropylsulfonylaminocarbonyl-2,15-dioxo-3,16-diaza-10-oxatricyclo[14.3.0.0^4,6]nonadec-7-ene] as the compound, how does the pIC50 [1] read?
**A.** > 7.00

**Q.** What about the pEC50 [2] of the same compound?
**A.** 6.00 to 7.00

**Q.** What about the melting point of the same compound?
**A.** 153 to 155 °C

**Q.** With CCCC(C)C(=O)O[C@@H]1C[C@H]2C(=O)N[C@]3(C(=O)NS(=O)(=O)C4CC4)C[C@H]3/C=C\COCCC[C@H](NC(=O)OC(C)(C)C)C(=O)N2C1 (stereo partly shown) [Compound 2, 18-(2-methylvaleryloxy)-14-tert-butoxycarbonylamino-4-cyclopropylsulfonylaminocarbonyl-2,15-dioxo-3,16-diaza-10-oxatricyclo-[14.3.0.0^4,6]-nonadec-7-ene] as the compound, how does the pIC50 [1] read?
**A.** > 7.00

**Q.** And the pEC50 [2]?
**A.** < 6.00

**Q.** And the melting point?
**A.** 121 to 123 °C

**Q.** With CC(C)(C)OC(=O)N[C@H]1COCCC/C=C\[C@@H]2C[C@@]2(C(=O)NS(=O)(=O)C2CC2)NC(=O)[C@@H]2C[C@@H](OC(=O)Nc3ccc(-c4ccccc4)cc3)CN2C1=O [Compound 39, 18-(4-biphenylaminocarbonyloxy)-14-tert-butoxycarbonylamino-4-cyclopropylsulfonylaminocarbonyl-2,15-dioxo-3,16-diaza-12-oxatricyclo-[14.3.0.0^4,6]-nonadec-7-ene] as the compound, how does the pIC50 [1] read?
**A.** < 6.00

**Q.** And the melting point?
**A.** 170 to 173 °C

**Q.** With CC(C)(C)OC(=O)N[C@H]1COCCC/C=C\[C@@H]2C[C@@]2(C(=O)NS(=O)(=O)C2CC2)NC(=O)[C@@H]2C[C@@H](OC(=O)N3Cc4cccc(F)c4C3)CN2C1=O [Compound 46, 18-(2-[4-fluoroisoindoline]carbonyloxy)-14-tert-butoxycarbonylamino-4-cyclopropylsulfonylaminocarbonyl-2,15-dioxo-3,16-diaza-12-oxatricyclo-[14.3.0.0^4,6]-nonadec-7-ene] as the compound, how does the pIC50 [1] read?
**A.** > 7.00

**Q.** And the pEC50 [2]?
**A.** > 7.00

**Q.** With CC(C)(C)OC(=O)N[C@H]1CCCCC/C=C\[C@@H]2C[C@@]2(C(=O)O)NC(=O)[C@@H]2C[C@@H](OC(=O)Nc3ccccc3-c3ccccc3)CN2C1=O [Compound 47] as the compound, how does the pIC50 [1] read?
**A.** < 6.00

**Q.** With CC(C)(C)OC(=O)N[C@H]1CCCCC/C=C\[C@@H]2C[C@@]2(C(=O)NS(=O)(=O)C2CC2)NC(=O)[C@@H]2C[C@@H](OC(=O)Nc3ccccc3-c3ccccc3)CN2C1=O [Compound 48] as the compound, how does the pIC50 [1] read?
**A.** > 7.00

**Q.** And the pEC50 [2]?
**A.** > 7.00

**Q.** What does the source list for CC(C)(C)OC(=O)N[C@H]1CN(C2CC2)CCC/C=C\[C@@H]2C[C@@]2(C(=O)NS(=O)(=O)C2CC2)NC(=O)[C@@H]2C[C@@H](OC(=O)c3ccc4nccnc4c3)CN2C1=O [Compound 49]?
**A.** pIC50 [1]: > 7.00; pEC50 [2]: > 7.00

**Q.** With CC(C)(C)OC(=O)N[C@H]1CN(C2CC2)CCC/C=C\[C@@H]2C[C@@]2(C(=O)NS(=O)(=O)C2CC2)NC(=O)[C@@H]2C[C@@H](OC(=O)N3Cc4cccc(F)c4C3)CN2C1=O [Compound 50] as the compound, how does the pIC50 [1] read?
**A.** > 7.00

**Q.** What about the pEC50 [2] of the same compound?
**A.** > 7.00
